Test results reported in ChEMBL document CHEMBL1141422, “Isolation and structures of erylosides from the Caribbean sponge Erylus formosus” (J Nat Prod, 2007).
Active and inactive are the calls of the source. The rule behind the calls is not given here.

Columns and labels:
[1] = Activation of calcium influx into mouse splenocytes at 100 ug/ml relative to control; assay type: functional, cell-based; conditions: Splenocyte
[2] = system: Ehrlich; assay: Induction of apoptosis in mouse Ehrlich carcinoma cells at 100 ug/ml; assay type: functional, cell-based

| SMILES | Activity [1] | Activity [2] |
| --- | --- | --- |
| C=C(CC[C@@H](C)[C@H]1CC[C@@]2(C(=O)O)C3=C(CC[C@]12C)[C@@]1(C)CC[C@H](O[C@@H]2OC[C@H](O)[C@H](O)[C@H]2O[C@@H]2O[C@H](CO)[C@H](O)[C@H](O)[C@H]2O)C(C)(C)[C@@H]1CC3)C(C)C | 130% |  |
| C=C(C)[C@@H](O)CC[C@@H](C)[C@H]1CC[C@@]2(C(=O)O)C3=C(CC[C@]12C)[C@@]1(C)CC[C@H](O[C@@H]2OC[C@H](O)[C@H](O)[C@H]2O[C@@H]2O[C@H](CO)[C@H](O)[C@H](O)[C@H]2O)C(C)(C)[C@@H]1CC3 |  | Active |
| CC(C)=CCC[C@@H](C)[C@H]1CC[C@@]2(C(=O)O)C3=C(CC[C@]12C)[C@@]1(C)CC[C@H](O[C@@H]2OC[C@H](O)[C@H](O)[C@H]2O[C@@H]2O[C@H](CO)[C@H](O)[C@H](O)[C@H]2O)C(C)(C)[C@@H]1CC3 | 130% |  |
